In general, Ki refers to the equilibrium dissociation constant of an inhibitor or competing ligand from its target. A lower Ki goes with higher affinity.

Where “and” joins values, the source holds several entries; their conditions need not be identical. Equal entries are not always repeated.

Some targets named below: Histamine H1 receptor (Cavia porcellus, UniProt P31389); Glutamate receptor 3 (Rattus norvegicus, UniProt P19492); Mu-type opioid receptor (Rattus norvegicus, UniProt P33535); D(2) dopamine receptor (Rattus norvegicus, UniProt P61169); D(1A) dopamine receptor (Rattus norvegicus, UniProt P18901).
In experiment [1] the target is T1, 5-hydroxytryptamine receptor 1A (Rattus norvegicus, UniProt P19327).
T1 sequence (P19327 whole entry): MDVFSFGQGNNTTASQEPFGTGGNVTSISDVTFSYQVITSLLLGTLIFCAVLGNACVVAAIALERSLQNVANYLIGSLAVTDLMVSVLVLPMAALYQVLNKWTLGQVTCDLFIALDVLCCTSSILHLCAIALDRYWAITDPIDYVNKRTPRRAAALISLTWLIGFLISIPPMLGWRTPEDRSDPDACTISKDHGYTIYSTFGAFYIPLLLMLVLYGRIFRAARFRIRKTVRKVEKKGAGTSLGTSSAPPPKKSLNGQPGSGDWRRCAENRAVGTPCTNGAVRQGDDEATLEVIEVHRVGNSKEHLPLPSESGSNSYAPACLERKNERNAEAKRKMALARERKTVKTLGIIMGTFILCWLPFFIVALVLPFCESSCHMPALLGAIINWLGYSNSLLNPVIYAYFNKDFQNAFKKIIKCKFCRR

The target in experiment [2] is T2, Muscarinic acetylcholine receptor M1 (Rattus norvegicus, UniProt P08482).
T2 sequence (P08482 whole entry): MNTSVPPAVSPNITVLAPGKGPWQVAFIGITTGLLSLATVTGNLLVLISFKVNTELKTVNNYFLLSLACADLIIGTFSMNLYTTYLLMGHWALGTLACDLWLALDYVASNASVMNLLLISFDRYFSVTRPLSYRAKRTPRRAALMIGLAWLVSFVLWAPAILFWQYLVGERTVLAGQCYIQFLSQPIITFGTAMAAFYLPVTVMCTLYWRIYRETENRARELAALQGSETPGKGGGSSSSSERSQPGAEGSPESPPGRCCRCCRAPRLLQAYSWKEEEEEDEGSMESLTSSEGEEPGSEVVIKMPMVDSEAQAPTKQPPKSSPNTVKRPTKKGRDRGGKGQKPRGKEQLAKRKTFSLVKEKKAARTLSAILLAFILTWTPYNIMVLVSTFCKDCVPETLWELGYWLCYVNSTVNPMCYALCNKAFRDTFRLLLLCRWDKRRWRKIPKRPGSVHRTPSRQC

In experiment [3] the target is Muscarinic acetylcholine receptor M3 (Rattus norvegicus, UniProt P08483).
Sequence of Muscarinic acetylcholine receptor M3 (P08483 whole entry): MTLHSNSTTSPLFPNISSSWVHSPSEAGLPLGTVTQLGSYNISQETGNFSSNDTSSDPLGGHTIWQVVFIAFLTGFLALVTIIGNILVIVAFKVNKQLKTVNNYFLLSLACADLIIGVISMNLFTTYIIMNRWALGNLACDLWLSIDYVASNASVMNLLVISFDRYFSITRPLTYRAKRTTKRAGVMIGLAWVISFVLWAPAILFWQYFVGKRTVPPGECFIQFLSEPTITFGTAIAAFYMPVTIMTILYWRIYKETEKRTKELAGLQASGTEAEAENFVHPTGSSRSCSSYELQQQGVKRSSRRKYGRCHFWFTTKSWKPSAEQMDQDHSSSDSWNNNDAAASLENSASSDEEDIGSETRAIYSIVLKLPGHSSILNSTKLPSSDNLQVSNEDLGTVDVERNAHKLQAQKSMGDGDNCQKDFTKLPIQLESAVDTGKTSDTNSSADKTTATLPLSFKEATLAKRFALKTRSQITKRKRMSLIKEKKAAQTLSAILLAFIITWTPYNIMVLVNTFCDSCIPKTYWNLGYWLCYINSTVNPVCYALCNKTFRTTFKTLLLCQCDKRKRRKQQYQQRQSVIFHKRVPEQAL
The target in experiment [4] is T3, Muscarinic acetylcholine receptor M2 (Rattus norvegicus, UniProt P10980).
T3 sequence (P10980 whole entry): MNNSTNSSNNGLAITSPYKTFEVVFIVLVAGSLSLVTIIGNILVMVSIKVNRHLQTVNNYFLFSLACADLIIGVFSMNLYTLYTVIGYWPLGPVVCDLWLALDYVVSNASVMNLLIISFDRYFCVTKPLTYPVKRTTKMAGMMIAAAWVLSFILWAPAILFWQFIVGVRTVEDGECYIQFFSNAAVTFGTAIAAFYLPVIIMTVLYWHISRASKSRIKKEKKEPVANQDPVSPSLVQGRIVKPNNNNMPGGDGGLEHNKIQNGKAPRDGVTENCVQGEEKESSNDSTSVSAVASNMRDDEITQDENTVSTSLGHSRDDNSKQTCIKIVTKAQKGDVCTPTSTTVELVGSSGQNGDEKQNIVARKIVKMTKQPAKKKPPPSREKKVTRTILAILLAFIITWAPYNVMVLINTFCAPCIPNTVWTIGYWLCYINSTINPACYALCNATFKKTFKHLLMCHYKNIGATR

Experiment [5] addresses 5-hydroxytryptamine receptor 2A (Rattus norvegicus, UniProt P14842).
In experiment [6] the target is Gamma-aminobutyric acid receptor subunit alpha-1 (Rattus norvegicus, UniProt P62813).
Sequence of Gamma-aminobutyric acid receptor subunit alpha-1 (P62813 whole entry): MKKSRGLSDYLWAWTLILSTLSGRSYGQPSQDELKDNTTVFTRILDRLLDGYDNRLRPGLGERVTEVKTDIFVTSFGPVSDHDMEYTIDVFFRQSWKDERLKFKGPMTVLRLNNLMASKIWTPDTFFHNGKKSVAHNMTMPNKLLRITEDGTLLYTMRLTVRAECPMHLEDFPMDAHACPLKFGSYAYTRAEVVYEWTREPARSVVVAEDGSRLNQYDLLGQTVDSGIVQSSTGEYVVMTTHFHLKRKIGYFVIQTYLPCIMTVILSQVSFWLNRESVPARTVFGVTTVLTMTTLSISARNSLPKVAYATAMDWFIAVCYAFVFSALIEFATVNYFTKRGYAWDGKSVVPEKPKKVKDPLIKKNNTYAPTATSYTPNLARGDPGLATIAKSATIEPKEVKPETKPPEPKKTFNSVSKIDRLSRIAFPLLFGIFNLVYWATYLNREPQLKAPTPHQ
Experiment [7] has as its target T4, Alpha-1A adrenergic receptor (Rattus norvegicus, UniProt P43140).
T4 sequence (P43140 whole entry): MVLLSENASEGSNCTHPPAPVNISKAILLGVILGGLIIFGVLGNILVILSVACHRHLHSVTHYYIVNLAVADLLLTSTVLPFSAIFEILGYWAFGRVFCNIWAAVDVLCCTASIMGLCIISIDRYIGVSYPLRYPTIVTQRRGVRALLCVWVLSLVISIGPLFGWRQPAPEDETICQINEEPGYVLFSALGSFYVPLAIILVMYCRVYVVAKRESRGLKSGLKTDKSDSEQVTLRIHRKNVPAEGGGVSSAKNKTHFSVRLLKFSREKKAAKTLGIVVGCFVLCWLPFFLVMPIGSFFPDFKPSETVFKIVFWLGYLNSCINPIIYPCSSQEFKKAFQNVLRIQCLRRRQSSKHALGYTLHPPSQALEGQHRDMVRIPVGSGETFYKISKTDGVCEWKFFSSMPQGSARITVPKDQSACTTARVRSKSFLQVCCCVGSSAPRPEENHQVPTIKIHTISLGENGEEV

Experiment [8] concerns the target Sigma non-opioid intracellular receptor 1 (Rattus norvegicus, UniProt Q9R0C9).
For experiment [9], the target named is Kappa-type opioid receptor (Rattus norvegicus, UniProt P34975).
Sequence of Kappa-type opioid receptor (P34975 whole entry): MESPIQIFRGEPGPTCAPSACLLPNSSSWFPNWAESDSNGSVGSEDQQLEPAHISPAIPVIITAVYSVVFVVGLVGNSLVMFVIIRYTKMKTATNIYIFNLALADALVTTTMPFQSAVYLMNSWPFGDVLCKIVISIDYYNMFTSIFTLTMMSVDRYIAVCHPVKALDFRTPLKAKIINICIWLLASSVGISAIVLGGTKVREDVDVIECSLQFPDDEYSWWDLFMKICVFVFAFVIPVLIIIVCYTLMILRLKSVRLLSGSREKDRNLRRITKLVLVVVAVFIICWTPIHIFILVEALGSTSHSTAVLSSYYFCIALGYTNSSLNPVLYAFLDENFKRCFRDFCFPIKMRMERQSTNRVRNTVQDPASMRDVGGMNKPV
Experiment [10] has as its target Beta-2 adrenergic receptor (Rattus norvegicus, UniProt P10608).
Experiment [11] concerns the target T5, Alpha-2C adrenergic receptor (Rattus norvegicus, UniProt P22086).
T5 sequence (P22086 whole entry): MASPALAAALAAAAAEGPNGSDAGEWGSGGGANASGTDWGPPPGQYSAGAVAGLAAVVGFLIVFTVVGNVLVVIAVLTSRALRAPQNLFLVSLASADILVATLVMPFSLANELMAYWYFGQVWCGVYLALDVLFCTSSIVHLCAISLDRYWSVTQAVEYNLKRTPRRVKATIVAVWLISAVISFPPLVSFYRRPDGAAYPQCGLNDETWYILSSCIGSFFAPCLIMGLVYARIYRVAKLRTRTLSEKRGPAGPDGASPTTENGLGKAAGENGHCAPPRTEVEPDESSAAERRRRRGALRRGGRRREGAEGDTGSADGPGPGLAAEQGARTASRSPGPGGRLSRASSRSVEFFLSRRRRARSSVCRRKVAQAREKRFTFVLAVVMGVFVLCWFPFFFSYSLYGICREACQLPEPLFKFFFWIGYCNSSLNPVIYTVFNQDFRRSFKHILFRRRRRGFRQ

For experiment [12], the target named is T6, Gastrin/cholecystokinin type B receptor (Rattus norvegicus, UniProt P30553).
T6 sequence (P30553 whole entry): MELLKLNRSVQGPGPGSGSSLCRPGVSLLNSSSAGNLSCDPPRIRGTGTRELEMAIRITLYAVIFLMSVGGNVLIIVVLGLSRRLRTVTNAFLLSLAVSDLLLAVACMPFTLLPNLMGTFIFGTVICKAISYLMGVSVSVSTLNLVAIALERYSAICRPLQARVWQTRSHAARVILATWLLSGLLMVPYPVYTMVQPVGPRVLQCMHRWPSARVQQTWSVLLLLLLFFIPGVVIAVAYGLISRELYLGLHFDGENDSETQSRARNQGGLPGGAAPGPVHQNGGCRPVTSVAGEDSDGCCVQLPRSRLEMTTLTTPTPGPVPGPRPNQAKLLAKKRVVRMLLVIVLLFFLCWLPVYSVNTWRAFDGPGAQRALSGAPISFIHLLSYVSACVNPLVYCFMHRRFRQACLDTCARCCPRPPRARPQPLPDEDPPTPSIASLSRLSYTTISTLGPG

Sequence of 5-hydroxytryptamine receptor 2A (P14842 whole entry): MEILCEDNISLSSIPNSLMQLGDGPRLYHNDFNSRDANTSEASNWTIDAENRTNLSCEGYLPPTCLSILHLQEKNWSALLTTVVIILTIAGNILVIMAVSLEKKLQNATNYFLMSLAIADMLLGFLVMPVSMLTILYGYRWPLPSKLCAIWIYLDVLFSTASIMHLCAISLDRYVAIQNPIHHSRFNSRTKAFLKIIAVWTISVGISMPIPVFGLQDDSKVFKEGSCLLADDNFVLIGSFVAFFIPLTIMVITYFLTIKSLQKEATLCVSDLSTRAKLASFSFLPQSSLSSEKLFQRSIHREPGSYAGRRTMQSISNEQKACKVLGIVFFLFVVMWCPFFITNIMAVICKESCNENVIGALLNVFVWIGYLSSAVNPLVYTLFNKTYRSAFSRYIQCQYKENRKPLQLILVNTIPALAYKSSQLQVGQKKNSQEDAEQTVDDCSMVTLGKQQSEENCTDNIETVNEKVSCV
Sequence of Histamine H1 receptor (P31389 whole entry): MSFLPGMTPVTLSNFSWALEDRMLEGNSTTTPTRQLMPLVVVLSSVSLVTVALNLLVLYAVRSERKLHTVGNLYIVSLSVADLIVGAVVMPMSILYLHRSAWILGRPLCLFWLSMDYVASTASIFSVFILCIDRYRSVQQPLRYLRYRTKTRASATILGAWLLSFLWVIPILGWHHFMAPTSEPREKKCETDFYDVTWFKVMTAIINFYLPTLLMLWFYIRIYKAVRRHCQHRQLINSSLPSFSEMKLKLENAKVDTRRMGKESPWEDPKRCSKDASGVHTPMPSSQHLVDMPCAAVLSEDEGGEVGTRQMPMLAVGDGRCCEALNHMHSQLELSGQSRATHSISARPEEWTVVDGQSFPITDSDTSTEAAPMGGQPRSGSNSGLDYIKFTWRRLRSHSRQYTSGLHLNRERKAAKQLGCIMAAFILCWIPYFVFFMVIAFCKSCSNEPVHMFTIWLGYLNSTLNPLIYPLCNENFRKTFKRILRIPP
Sequence of Glutamate receptor 3 (P19492 whole entry): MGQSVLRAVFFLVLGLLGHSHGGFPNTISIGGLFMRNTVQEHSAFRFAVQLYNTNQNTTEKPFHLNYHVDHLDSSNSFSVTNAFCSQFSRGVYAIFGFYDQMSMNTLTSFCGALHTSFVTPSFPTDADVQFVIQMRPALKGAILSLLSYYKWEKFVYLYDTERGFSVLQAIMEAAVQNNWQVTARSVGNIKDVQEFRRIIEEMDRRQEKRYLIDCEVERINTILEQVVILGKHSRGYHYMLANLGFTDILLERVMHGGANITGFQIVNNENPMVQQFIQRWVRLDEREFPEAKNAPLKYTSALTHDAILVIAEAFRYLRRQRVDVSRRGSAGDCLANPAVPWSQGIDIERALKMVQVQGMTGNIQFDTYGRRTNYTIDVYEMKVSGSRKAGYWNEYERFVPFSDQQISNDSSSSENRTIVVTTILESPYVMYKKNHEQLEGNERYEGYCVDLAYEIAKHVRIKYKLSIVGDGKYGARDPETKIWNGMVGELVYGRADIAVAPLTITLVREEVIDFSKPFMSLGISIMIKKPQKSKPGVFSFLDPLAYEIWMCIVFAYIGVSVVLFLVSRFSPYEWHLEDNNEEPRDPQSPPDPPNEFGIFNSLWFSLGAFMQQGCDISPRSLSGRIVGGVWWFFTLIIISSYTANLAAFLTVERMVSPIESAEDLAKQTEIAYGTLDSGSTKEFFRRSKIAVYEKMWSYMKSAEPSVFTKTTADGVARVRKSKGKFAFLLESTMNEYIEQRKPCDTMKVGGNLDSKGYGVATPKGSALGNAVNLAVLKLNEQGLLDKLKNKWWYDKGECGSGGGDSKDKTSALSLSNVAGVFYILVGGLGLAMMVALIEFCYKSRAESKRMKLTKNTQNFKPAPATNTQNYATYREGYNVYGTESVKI
Sequence of D(2) dopamine receptor (P61169 whole entry): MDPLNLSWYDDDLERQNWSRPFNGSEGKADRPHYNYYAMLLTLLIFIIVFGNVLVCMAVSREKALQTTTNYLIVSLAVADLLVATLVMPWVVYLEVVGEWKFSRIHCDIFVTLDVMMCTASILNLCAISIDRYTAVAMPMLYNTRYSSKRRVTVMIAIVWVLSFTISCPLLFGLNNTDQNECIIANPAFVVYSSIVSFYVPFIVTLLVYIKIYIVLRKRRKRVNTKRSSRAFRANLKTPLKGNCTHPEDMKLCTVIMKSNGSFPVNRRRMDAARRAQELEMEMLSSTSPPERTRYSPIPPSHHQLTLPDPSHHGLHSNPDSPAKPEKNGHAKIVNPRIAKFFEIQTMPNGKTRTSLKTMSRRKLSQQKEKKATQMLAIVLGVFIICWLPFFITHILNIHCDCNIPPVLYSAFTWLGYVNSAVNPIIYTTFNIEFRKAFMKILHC
Sequence of Mu-type opioid receptor (P33535 whole entry): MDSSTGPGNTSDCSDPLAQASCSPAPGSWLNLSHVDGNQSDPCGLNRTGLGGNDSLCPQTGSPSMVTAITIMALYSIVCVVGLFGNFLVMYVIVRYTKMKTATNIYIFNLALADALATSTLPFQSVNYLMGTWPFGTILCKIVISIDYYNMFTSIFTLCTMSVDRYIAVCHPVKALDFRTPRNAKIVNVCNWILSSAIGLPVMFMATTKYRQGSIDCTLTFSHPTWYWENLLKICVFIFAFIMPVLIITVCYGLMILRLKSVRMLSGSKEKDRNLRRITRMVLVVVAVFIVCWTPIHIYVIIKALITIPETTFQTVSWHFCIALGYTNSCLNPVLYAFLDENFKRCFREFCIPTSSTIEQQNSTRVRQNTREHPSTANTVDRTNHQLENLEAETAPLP
Sequence of D(1A) dopamine receptor (P18901 whole entry): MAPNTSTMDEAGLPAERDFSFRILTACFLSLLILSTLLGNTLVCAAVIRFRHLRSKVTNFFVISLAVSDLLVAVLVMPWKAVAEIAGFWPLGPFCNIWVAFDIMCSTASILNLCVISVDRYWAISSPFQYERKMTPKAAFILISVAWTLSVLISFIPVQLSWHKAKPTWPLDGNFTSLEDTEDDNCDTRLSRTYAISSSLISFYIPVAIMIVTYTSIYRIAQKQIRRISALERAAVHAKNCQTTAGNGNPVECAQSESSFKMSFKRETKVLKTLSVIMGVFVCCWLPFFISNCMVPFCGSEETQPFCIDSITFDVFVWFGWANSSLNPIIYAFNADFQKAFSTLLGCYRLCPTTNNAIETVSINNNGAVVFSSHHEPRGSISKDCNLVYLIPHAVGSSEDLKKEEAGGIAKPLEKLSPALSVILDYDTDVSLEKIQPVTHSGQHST
Sequence of Beta-2 adrenergic receptor (P10608 whole entry): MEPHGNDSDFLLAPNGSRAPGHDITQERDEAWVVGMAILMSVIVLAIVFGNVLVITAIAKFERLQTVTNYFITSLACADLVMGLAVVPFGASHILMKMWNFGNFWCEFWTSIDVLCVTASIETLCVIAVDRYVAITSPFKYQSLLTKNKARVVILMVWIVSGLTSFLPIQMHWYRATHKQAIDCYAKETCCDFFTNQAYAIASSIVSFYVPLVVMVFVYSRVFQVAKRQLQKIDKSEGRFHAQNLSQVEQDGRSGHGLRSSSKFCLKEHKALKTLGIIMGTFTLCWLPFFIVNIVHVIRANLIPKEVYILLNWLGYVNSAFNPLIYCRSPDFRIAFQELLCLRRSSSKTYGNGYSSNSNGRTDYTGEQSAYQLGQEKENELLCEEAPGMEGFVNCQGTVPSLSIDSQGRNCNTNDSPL

As for `Cc1cccc(NC(=O)N[C@@H]2N=C(c3ccccc3)c3ccccc3N(CC(=O)c3ccccc3C)C2=O)c1`, the inhibition constant (Ki) (in experiment [1]; in experiment [2]; in [3]; in experiment [4]; in [5]; on Histamine H1 receptor) was more than 10 µM throughout. Further, the Ki (on Glutamate receptor 3; at Mu-type opioid receptor; in [6]; in [7]; on D(2) dopamine receptor; in [8]) was more than 10 µM throughout. Moreover, the Ki (in [9]; in experiment [10]; in experiment [11]; at D(1A) dopamine receptor) was more than 10 µM in each case.

`Cc1cccc(NC(=O)N[C@H]2N=C(c3ccccc3)c3ccccc3N(CC(=O)c3ccccc3C)C2=O)c1` [YM022 S-isomer]: the Ki in experiment [12] is 0.14 µM and 0.49 µM.

These data come from BindingDB's records for PubMed 7910212 (Yamanouchi Pharmaceutical, 1994).
